Active and inactive are the calls of the source.
Legend:
HEK293 [1] = experiment: cytotoxicity in HEK293T NF-kB-Luc cells, SAR follow-up, cytotoxicity control for NF-kB activator project, cell-based, resazurin fluorescence (AID 493251); format: functional; settings: Homo sapiens
[2] = target: Delta-type opioid receptor (Homo sapiens, UniProt P41143); experiment: Counterscreen for agonists of heterodimerization of the mu 1 (OPRM1) and delta 1 (OPRD1) opioid receptors: Luminescence-based cell-based high throughput dose response assay to identify agonists of OPRD1 homodimerization. [Related pubchem assays (depositor defined):AID504326, AID504355, AID504692, AID504904, AID504905]; format: functional
Sequence of Delta-type opioid receptor (P41143 whole entry): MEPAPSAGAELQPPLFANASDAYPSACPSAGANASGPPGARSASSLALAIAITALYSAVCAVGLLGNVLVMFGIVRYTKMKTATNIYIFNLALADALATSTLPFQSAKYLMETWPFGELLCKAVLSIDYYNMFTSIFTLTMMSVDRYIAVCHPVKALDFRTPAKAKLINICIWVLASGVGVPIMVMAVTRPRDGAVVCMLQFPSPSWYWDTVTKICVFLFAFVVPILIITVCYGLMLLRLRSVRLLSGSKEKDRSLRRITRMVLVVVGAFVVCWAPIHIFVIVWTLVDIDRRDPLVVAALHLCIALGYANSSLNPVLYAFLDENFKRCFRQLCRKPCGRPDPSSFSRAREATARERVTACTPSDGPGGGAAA

[3] = target: Glutathione-S-transferase (Schistosoma japonicum, UniProt Q26513); experiment: biotin-GST/anti-GST TR-FRET signal inhibitors, dose response, artefact control for Vif-APOBEC3G degradation inhibitor project, biochemical (AID 1117362); format: functional
Sequence of Glutathione-S-transferase (Q26513 whole entry): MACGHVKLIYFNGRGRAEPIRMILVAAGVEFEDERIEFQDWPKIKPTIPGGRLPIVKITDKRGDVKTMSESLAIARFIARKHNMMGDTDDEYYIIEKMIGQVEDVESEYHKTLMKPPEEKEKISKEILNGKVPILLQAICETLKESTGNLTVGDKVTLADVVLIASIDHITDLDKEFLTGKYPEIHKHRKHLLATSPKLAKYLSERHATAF

[4] = THP-1 cell cytotoxicity, dose response, cytotoxicity control for Vif-APOBEC3G degradation inhibitor project, THP-1 cells (AID 1117359); format: functional; settings: Human immunodeficiency virus 1, THP-1
Mu-type opioid receptor = Mu-type opioid receptor (Homo sapiens, UniProt P35372); experiment: Counterscreen for agonists of heterodimerization of the mu 1 (OPRM1) and delta 1 (OPRD1) opioid receptors: Luminescence-based cell-based high throughput dose response assay to identify agonists of OPRM1 homodimerization.; format: functional;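 also: U2OS cells expressing OPRM1 and beta-arrestin as split beta-galactosidase partners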
[5] = target: T1, Rac GTPase-activating protein 1 (Homo sapiens, UniProt Q9H0H5); experiment: MgcRacGAP GTPase-activating activity inhibitors, confirmation, biochemical, ADP Hunter fluorescence, primary and confirmatory (AID 624330); format: functional
T1 sequence (Q9H0H5 whole entry): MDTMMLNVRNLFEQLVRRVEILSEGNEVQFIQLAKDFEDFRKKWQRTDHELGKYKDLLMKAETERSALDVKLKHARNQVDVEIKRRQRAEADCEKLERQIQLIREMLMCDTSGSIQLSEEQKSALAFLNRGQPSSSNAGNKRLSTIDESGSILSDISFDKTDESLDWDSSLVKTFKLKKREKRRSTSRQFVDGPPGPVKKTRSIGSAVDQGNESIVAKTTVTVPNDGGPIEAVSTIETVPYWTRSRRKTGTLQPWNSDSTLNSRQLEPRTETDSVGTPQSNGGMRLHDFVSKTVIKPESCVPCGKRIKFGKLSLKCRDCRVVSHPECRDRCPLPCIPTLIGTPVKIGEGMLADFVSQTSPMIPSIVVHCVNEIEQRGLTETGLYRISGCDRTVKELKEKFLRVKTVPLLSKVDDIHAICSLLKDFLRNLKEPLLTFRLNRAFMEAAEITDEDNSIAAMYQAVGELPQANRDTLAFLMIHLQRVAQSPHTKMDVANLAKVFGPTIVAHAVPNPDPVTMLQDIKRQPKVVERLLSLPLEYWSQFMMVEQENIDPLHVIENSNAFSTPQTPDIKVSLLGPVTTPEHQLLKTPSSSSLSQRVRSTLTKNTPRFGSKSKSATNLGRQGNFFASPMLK

[6] = target: 5-hydroxytryptamine receptor 5A (Homo sapiens, UniProt P47898); experiment: Counterscreen for agonists of OPRM1-OPRD1 heterodimerization: luminescence-based cell-based high throughput dose response assay to identify agonists of 5-hydroxytryptamine (serotonin) 5A receptor (HTR5A). [Related pubchem assays (depositor defined):AID504326, AID504355, AID504692, AID504904, AID504905]; format: functional
Nonstructural protein 1 = Nonstructural protein 1 (Influenza A virus, UniProt Q194T2); format: functional, Influenza A virus (A/California/07/2009(H1N1))
Sequence of Nonstructural protein 1 (Q194T2 whole entry): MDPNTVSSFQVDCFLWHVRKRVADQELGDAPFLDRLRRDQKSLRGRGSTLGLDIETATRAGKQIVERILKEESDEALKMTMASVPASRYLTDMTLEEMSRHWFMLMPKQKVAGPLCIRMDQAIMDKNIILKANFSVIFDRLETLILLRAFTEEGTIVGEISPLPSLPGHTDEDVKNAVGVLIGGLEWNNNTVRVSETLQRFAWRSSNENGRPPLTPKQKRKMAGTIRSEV

[7] = HeLa cell cytotoxicity, dose response, cytotoxicity control for MgcRacGAP inhibitor project (AID 624300); format: functional
HEK293 [8] = experiment: inhibitors of LMP1-driven NF-kB reporter, dose response, cell-based, HEK293, luciferase, cherry-pick (AID 588343); format: functional; settings: Homo sapiens
[9] = target: Beta-adrenergic receptor kinase 1 (Homo sapiens, UniProt P25098); experiment: aptamer displacement from bead-bound GRK2 – biochemical, cherry pick 1, bead flow cytometry, dose response (AID 504500)
[10] = target: T2, Voltage-gated N-type calcium channel alpha-1B subunit/Amyloid beta A4 precursor protein-binding family A member 1 (Homo sapiens, UniProt Q00975+Q02410); format: protein assay
T2 sequence (Q00975 whole entry): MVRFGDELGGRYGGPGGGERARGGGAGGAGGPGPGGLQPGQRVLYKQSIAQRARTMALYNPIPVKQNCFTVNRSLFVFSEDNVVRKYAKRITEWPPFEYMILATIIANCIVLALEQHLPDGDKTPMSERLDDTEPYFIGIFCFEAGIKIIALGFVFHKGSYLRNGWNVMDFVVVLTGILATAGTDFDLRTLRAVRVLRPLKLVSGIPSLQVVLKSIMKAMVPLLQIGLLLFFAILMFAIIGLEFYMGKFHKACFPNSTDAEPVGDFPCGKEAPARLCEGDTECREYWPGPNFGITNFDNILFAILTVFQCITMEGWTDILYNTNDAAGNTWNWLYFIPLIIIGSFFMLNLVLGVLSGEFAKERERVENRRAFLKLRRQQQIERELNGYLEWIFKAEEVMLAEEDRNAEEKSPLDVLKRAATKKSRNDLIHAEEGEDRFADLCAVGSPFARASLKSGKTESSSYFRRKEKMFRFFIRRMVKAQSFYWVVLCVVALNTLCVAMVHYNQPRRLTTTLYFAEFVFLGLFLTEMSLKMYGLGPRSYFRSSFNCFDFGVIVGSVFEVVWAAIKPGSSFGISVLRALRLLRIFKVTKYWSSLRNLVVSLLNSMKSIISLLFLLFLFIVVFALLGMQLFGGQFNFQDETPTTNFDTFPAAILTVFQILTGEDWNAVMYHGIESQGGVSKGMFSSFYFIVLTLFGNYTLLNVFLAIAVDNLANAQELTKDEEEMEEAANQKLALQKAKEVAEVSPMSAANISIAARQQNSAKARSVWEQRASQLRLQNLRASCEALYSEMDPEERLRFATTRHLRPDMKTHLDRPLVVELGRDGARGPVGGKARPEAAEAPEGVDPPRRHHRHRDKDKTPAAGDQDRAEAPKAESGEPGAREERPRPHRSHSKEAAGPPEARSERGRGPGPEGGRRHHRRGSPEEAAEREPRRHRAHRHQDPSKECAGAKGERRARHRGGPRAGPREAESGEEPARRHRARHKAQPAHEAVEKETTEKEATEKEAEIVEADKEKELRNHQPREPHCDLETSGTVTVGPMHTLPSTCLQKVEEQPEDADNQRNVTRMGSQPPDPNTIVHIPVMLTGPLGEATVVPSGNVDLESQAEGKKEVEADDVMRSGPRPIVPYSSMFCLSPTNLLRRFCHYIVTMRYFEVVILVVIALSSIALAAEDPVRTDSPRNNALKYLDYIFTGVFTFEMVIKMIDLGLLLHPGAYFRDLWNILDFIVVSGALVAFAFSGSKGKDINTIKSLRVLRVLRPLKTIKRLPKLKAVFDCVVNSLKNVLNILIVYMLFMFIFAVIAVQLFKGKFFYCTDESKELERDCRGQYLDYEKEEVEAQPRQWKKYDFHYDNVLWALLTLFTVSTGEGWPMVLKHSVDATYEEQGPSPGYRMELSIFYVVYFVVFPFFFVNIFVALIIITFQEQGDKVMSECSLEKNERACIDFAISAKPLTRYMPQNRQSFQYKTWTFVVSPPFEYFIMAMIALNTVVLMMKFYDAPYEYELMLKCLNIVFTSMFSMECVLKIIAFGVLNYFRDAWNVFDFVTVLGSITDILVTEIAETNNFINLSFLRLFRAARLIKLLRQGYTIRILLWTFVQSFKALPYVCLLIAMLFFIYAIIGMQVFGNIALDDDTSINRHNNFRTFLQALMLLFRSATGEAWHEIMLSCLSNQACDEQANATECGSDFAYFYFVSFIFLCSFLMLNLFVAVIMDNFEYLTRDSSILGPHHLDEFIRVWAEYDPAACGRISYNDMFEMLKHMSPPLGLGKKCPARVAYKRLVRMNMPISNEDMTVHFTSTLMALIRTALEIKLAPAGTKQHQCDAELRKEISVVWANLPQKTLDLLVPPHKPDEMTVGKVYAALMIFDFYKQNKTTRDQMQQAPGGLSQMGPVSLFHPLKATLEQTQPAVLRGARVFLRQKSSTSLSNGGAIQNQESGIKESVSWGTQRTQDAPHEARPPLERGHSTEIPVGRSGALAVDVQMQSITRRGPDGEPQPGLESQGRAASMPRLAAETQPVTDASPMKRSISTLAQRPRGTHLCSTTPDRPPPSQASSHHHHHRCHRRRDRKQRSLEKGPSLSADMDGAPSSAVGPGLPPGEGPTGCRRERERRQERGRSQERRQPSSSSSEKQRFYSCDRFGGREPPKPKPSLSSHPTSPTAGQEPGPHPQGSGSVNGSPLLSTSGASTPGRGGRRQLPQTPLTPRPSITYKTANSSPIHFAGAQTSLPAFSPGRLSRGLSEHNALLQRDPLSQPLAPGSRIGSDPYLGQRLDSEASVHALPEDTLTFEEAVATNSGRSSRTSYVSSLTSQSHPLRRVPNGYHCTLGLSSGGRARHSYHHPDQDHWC
T2 sequence (Q02410 whole entry): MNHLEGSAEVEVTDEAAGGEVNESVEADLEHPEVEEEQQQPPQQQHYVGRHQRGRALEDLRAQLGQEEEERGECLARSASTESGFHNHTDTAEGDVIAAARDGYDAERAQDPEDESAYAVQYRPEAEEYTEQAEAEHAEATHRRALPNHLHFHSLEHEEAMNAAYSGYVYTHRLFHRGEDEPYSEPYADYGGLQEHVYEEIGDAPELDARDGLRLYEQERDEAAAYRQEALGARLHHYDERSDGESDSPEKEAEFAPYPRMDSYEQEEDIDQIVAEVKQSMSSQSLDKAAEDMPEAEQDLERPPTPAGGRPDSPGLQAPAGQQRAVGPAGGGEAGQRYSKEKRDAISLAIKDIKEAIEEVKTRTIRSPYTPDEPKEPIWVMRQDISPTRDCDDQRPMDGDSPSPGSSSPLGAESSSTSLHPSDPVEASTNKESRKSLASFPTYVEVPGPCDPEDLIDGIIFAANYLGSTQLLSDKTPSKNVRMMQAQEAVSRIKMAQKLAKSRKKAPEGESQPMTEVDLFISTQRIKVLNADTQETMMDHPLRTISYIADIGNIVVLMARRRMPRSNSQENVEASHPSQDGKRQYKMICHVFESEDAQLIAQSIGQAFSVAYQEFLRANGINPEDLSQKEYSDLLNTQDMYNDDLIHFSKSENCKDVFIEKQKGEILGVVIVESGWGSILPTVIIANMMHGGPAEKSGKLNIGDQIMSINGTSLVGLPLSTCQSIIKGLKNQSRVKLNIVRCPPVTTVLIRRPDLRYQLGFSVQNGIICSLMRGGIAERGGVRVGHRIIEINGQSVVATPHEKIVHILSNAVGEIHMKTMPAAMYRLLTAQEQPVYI

[11] = MC4R antagonists, dose response, counter-screen for LGR2 antagonist project, cell-based, plate reader, cherry pick (AID 743444); format: functional;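 also: transfected HEK 293 cells stimulated with alpha-MSH peptide; potency of inhibitors of the alpha-MSH evoked signal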
[12] = target: T2, Voltage-gated N-type calcium channel alpha-1B subunit/Amyloid beta A4 precursor protein-binding family A member 1; format: protein assay; remark: listed apart in the source
[13] = LGR2 antagonists, dose response, cell-based, HEK293, CRE-luciferase reporter, cherry pick, set 2 (AID 743343); format: functional;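 also: transfected cells were stimulated with diluted bursicon conditioned medium after compound addition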
[14] = target: Histone-lysine N-methyltransferase NSD2 (Homo sapiens, UniProt O96028); format: biochemical
[15] = target: T3, Bifunctional protein GlmU (Mycobacterium tuberculosis, UniProt P9WMN3); experiment: Inhibitors of Mycobacterial Glucosamine-1-phosphate acetyl transferase (GlmU). Secondary screen.; design: species or system Mycobacterium tuberculosis H37Rv
T3 sequence (P9WMN3 whole entry): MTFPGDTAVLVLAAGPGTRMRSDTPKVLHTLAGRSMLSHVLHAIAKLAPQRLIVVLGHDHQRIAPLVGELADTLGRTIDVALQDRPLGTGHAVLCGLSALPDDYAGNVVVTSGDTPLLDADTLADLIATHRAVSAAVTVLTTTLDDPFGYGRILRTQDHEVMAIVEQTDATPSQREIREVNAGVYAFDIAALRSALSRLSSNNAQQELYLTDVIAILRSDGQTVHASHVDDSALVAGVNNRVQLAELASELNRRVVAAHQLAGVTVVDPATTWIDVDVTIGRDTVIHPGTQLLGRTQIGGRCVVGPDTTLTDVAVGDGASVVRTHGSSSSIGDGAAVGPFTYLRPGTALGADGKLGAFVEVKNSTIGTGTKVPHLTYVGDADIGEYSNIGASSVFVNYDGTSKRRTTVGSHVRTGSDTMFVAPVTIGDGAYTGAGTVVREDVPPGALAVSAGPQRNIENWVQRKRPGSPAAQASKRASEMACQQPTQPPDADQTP

Caspase-6 = target: T4, Caspase-6 (Homo sapiens, UniProt P55212); experiment: human caspase-6 inhibitors, dose response, biochemical, VEID-R110 fluorescence, cherry-pick (AID 720632)
T4 sequence (P55212 whole entry): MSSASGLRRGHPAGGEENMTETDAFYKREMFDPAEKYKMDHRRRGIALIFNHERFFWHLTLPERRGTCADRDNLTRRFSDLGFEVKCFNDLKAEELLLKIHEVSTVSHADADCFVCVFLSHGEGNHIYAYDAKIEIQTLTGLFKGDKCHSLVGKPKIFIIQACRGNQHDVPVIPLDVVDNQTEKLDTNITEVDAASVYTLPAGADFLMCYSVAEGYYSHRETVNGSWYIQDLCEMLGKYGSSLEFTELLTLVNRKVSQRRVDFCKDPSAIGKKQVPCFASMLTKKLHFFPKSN

[16] = ZM109 Env clade C HIV-1 fusion inhibitors, dose response, HeLa effector, CEM target cells, luciferase, cherry-pick (AID 652058); format: functional, cell-based
[17] = HepG2 cell cytotoxicity, dose response, cytotoxicity control for Shn3 inhibitor project, CellTiter-Glo, cherry-picked (AID 624134); format: functional, cell-based
[18] = inhibitors of HIV Env-driven cell fusion, dose response, cherry-pick (AID 652057); format: functional, cell-based
[19] = CEM21 lymphoblast cell cytotoxicity, dose response, cytotoxicity control for viral fusion inhibitor project, CellTiter-Glo luminescence, cherry-picked (AID 652042); format: functional, cell-based;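 also: potency for signal decrease meaning cytotoxicity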
Paired box protein Pax-8 = Paired box protein Pax-8 (Homo sapiens, UniProt Q06710); experiment: inhibitors of PAX8-driven TPO luciferase reporter, dose response, RMG-I cells, cherry-pick (AID 687027); format: functional, cell-based;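 also: luciferase reporter driven by Pax8 target thyroperoxidase promoter measured by SteadyGlo luminescence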
[20] = Shn3 3'UTR reporter inhibitors, dose response, cell-based, Clone20 osteoblasts, firefly luciferase, cherry-picked (AID 624132); format: functional;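 also: firefly luciferase luminescence from reporter carrying the Shn3 3'UTR in osteoblasts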
[21] = target: Luciferin 4-monooxygenase (Photuris pensylvanica, UniProt Q27757); experiment: firefly luciferase enzyme inhibitors, dose response, counter-screen for HSF-1 reporter inhibitor project, biochemical, Cell Titer Glo, luminescence, cherry-picks (AID 588847)
Sequence of Luciferin 4-monooxygenase (Q27757 whole entry): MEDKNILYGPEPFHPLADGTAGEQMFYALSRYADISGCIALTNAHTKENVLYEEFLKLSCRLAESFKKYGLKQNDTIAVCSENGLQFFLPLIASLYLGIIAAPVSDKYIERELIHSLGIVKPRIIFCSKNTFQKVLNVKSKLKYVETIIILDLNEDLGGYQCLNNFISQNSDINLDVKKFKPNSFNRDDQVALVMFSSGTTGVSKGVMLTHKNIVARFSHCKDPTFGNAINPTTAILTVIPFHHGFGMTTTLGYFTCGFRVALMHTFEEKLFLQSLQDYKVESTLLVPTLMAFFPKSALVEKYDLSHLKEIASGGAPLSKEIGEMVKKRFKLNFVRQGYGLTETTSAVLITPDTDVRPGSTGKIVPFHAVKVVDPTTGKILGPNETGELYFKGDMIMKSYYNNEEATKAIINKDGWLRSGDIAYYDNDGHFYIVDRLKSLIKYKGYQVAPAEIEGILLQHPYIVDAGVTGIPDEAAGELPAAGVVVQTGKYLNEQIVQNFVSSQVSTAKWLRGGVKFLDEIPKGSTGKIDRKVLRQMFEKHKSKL

[22] = inhibitors of firefly luciferase expression or activity, dose response, H4 neuroglioma cells, luminescence (AID 1990); format: functional, cell-based
[23] = Luminescence Cell-Based Dose Response HTS to Identify Inhibitors of 5'UTR Stem-Loop Driven Prion Protein mRNA Translation in H4 Neuroglioblastoma Cells. [Related pubchem assays: 1827 (Project Summary), 1813 (Primary HTS)]; format: functional
[24] = non-specific cell cytotoxicity, dose response, cytotoxicity control for PAX8 inhibitor project, plate reader, dry powder samples (AID 743021); format: functional, cell-based
[25] = target: Heat shock protein HSP 90-alpha (Homo sapiens, UniProt P07900); experiment: Luminescence-based dose response biochemical high throughput screening assay for inhibitors of the Heat Shock Protein 90 (HSP90). [Related pubchem assays: 1831 (Summary AID.), 1846 (Confirmation screen.), 1789 (Primary screen.)]
[26] = inhibitors of clade B AD8 Env fusion, dose response, cell-based, cherry-pick (AID 652062); format: functional;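 also: luciferase signal from cell-cell fusion driven by HIV-1 clade B AD8 Env; potency is for inhibitors of fusion seen as a drop in luminescence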
[27] = inhibitors of SNCA 5'UTR-driven reporter translation, confirmation, H4 neuroglioma cells, luminescence (AID 1988); format: functional, cell-based
[28] = off-target signal loss in HeLa-CEM21 co-culture – HeLa F-luc CTL cells, cherry-picked, counter-screen for HIV-1 Env fusion inhibitor project, dose response (AID 652040); format: functional, cell-based;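 also: potency for signal decrease marking cytotoxic or nonspecific inhibition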
[29] = target: T5, Heat shock factor protein 1 (Mus musculus, UniProt P38532); experiment: inhibition of MG132-induced HSE-luciferase signal, confirmation, cell-based, NIH3T3, luminescence, dose retest (AID 2382); format: functional;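 also: NIH3T3 fibroblasts with HSF1-driven luciferase reporter stressed by proteasome inhibitor MG132; luminescence from HSF1-driven luciferase expression after 8 hours of MG132 stress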
T5 sequence (P38532 whole entry): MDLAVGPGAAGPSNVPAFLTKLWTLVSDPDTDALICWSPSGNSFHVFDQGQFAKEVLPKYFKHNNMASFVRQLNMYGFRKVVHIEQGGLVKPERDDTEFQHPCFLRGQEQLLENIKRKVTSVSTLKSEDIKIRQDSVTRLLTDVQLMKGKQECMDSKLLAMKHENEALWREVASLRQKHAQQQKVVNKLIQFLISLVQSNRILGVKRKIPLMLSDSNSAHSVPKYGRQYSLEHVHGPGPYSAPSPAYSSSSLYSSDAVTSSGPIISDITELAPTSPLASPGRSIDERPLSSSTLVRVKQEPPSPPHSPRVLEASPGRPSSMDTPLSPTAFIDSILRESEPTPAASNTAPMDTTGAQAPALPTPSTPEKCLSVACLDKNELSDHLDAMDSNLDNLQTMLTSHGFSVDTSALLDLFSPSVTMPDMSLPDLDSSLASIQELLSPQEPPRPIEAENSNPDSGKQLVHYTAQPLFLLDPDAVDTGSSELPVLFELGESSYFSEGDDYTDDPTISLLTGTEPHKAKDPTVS

[30] = control 3'UTR Renilla luciferase suppression, dose response, counter-screen for Shn3 inhibitor project, cell-based, Clone20-Shn3RL, cherry-picked (AID 624133); format: functional
[31] = Fluorescence polarization-based biochemical high throughput dose response assay for activators of the Protein Kinase A-R2B (PKA-R2B) complex. [Related pubchem assays (depositor defined):AID504700, AID504704, AID504796, AID504797]
[32] = Fluorescence polarization-based biochemical high throughput dose response assay for activators of the Protein Kinase A-R1A (PKA-R1A) complex. [Related pubchem assays (depositor defined):AID504704, AID504707, AID504799, AID504800]
[33] = target: Beta-2 adrenergic receptor (Homo sapiens, UniProt P07550); experiment: beta2AR agonists driving receptor internalization, dose response, cell-based, FAP fluorogen, flow cytometry, cherry pick 1 (AID 588763); format: functional
Sequence of Beta-2 adrenergic receptor (P07550 whole entry): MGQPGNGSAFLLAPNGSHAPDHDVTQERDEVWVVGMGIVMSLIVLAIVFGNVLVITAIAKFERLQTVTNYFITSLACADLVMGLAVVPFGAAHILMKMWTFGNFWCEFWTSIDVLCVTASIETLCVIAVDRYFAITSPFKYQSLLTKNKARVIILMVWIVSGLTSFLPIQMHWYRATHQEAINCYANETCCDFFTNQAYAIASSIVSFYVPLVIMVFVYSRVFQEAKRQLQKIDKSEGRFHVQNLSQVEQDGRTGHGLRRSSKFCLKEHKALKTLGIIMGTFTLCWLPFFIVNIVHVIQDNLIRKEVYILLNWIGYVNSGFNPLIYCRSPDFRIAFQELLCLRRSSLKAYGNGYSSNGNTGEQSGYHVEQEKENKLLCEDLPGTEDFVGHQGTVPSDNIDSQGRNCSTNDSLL

With `Cc1oc(-c2ccccc2)nc1CSCC(=O)NC1CC1` the IC50 (HEK293 [1]) was > 80 µM (inactive).

In the case of `CCN(CC)Cc1cc(Nc2c3ccccc3nc3c4ccccc4n(C)c23)cc(CN(CC)CC)c1O`, the EC50 [2] is reported as 1.49 µM (active), the IC50 [3] is reported as 59.5 µM (active) and the CC50 [4] is reported as 11 µM (active). For the same compound, the EC50 (Mu-type opioid receptor) was > 92.6 µM (inactive), the IC50 [5] was 22.1 µM (active) and the EC50 [6] was > 92.6 µM (inactive). The IC50 (Nonstructural protein 1) was 17.9 µM (active) and the CC50 [7] was 80 µM (active).

With `O=C(O)c1c2c(nc3ccccc13)/C(=C/c1ccc(O)cc1)CC2` the AC50 (HEK293 [8]) was 1.93 µM (active), the EC50 [9] was 33.3 µM (inactive) and the IC50 [10] was 18.4 µM (active). The AC50 [11] was 6.44 µM (active), the IC50 [12] was 3.85 µM (active) and the AC50 [13] was 6.42 µM (active). For the same compound, the AC50 [14] was 9.03 µM (active), the IC50 [15] was 124 µM (active) and the AC50 (Caspase-6) was 2 µM (active).

In the case of `CC1CCN(c2ccc(-c3cccc(NC(=O)C(F)(F)F)c3)nn2)CC1`, the AC50 [16] is reported as 36.5 µM (active), the AC50 [17] is reported as 44.1 µM (active) and the AC50 [18] is reported as 2.55 µM (active). The AC50 [19] was 32.2 µM (active), the AC50 (Paired box protein Pax-8) was 3.37 µM (active) and the AC50 [20] was 2.74 µM (active). For the same compound, the AC50 [21] was 29.2 µM (active), the EC50 [22] was 5.09 µM (inconclusive) and the EC50 [23] was 8.19 µM (active). For the same compound, the AC50 [24] was 32 µM (active), the IC50 [25] was 8.01 µM (active) and the AC50 [26] was 11.5 µM (active). The EC50 [27] was 0.475 µM (inconclusive), the AC50 [28] was 4.11 µM (active) and the EC50 [29] was < 0.16 µM (active). For the same compound, the AC50 [30] was 3.1 µM (active).

In the case of `CCCC(=O)Nc1ncnc2c1ncn2[C@@H]1O[C@@H]2OP(=O)(O)OC[C@H]2[C@H]1OC(=O)CCC`, the EC50 [31] is reported as 9.1 µM (active) and the EC50 [32] is reported as 6.7 µM (active).

In the case of `CC1=C(C(=O)Nc2ccc(C(=O)N3CCN(c4ccccc4F)CC3)cc2)SCCO1`, the EC50 [33] is reported as 3.01 µM (active).
